In ChEMBL document CHEMBL1154520, “Synthesis and antitumor activity of novel 20s-camptothecin analogues” (Bioorg Med Chem Lett, 2009):

Legend:
[1] = Chemical stability assessed as half life in PBS at pH 7.4 by HPLC; assay type: physicochemical
MCF7 = assay: Cytotoxicity against human MCF7 cells by MTT assay; assay type: functional, cell-based
HCT-8 [2] = assay: Cytotoxicity against human HCT8 cells by MTT assay; assay type: functional, cell-based
PC-3 = assay: Cytotoxicity against human PC3 cells by MTT assay; assay type: functional, cell-based
HCT-8 [3] = assay: Antitumor activity against human HCT8 xenografted in BALB/c nu/nu mouse assessed as change in body weight at 10 mg/kg, ip q3d for 3 days; assay type: functional; settings: route intraperitoneal
HCT-8 [4] = assay: Antitumor activity against human HCT8 xenografted in BALB/c nu/nu mouse assessed as change in body weight at 20 mg/kg, ip q3d for 3 days; assay type: functional; settings: route intraperitoneal
HCT-8 [5] = assay: Antitumor activity against human HCT8 xenografted in BALB/c nu/nu mouse assessed as tumor inhibition rate at 10 mg/kg, ip q3d for 3 days; assay type: functional; settings: HCT-8, ip, 72 h, route intraperitoneal
HCT-8 [6] = assay: Antitumor activity against human HCT8 xenografted in BALB/c nu/nu mouse assessed as tumor inhibition rate at 20 mg/kg, ip q3d for 3 days; assay type: functional; settings: HCT-8, ip, 72 h, route intraperitoneal
Mus musculus [7] = assay: Toxicity to BALB/c nu/nu mouse assessed as mortality at 10 mg/kg, ip q3d for 3 days; assay type: organism-based; set-up: dose 10 mg/kg, route intraperitoneal; settings: in vivo, 72 h
Mus musculus [8] = assay: Toxicity to BALB/c nu/nu mouse assessed as mortality at 20 mg/kg, ip q3d for 3 days; assay type: organism-based; set-up: dose 20 mg/kg, route intraperitoneal; settings: in vivo, 72 h
HCT-8 [9] = assay: Antitumor activity against human HCT8 xenografted in BALB/c nu/nu mouse assessed as change in body weight at 5 mg/kg, ip q3d for 3 days; assay type: functional; settings: route intraperitoneal
HCT-8 [10] = assay: Antitumor activity against human HCT8 xenografted in BALB/c nu/nu mouse assessed as tumor inhibition rate at 5 mg/kg, ip q3d for 3 days; assay type: functional; settings: HCT-8, ip, 72 h, route intraperitoneal
Mus musculus [11] = assay: Toxicity to BALB/c nu/nu mouse assessed as mortality at 5 mg/kg, ip q3d for 3 days; assay type: organism-based; set-up: dose 5 mg/kg, route intraperitoneal; settings: in vivo, 72 h

| half-life [1] [h] | Compound | IC50 (MCF7) [nM] | IC50 (HCT-8 [2]) [nM] | IC50 (PC-3) [nM] | Activity (HCT-8 [3]) [%] | Activity (HCT-8 [4]) [%] | inhibition in vivo at 10 mg/kg (HCT-8 [5]) [%] | inhibition in vivo at 20 mg/kg (HCT-8 [6]) [%] | Activity (Mus musculus [7]) | Activity (Mus musculus [8]) | Activity (HCT-8 [9]) [%] | inhibition in vivo at 5 mg/kg (HCT-8 [10]) [%] | Activity (Mus musculus [11]) |
| --- | --- | --- | --- | --- | --- | --- | --- | --- | --- | --- | --- | --- | --- |
| 14 | CC[C@@]1(OC(=O)C(C)n2cncn2)C(=O)OCc2c1cc1n(c2=O)Cc2cc3ccccc3nc2-1 (stereo partly drawn) | 650 | 510 | 440 | – | – | – | – | – | – | – | – | – |
| > 48 | CC[C@@]1(OC(=O)CO)C(=O)OCc2c1cc1n(c2=O)Cc2cc3ccccc3nc2-1 | 10400 | 3000 | 30 | – | – | – | – | – | – | – | – | – |
| – | CC[C@@]1(OC(=O)C[n+]2cccc(C(=O)O)c2)C(=O)OCc2c1cc1n(c2=O)Cc2cc3ccccc3nc2-1 | 2120 | 760 | 550 | – | – | – | – | – | – | – | – | – |
| 13 | CC[C@@]1(OC(=O)C(C)n2ccnn2)C(=O)OCc2c1cc1n(c2=O)Cc2cc3ccccc3nc2-1 (stereo partly drawn) | 160 | 480 | 590 | – | – | – | – | – | – | – | – | – |
| 45 | CC[C@@]1(OC(=O)Cn2cncn2)C(=O)OCc2c1cc1n(c2=O)Cc2cc3ccccc3nc2-1 | 690 | 740 | 150 | – | – | – | – | – | – | – | – | – |
| 18 | CC[C@@]1(OC(=O)C(C)n2ccnc2)C(=O)OCc2c1cc1n(c2=O)Cc2cc3ccccc3nc2-1 (stereo partly drawn) | 110 | 590 | 380 | – | – | – | – | – | – | – | – | – |
| – | CC[C@@]1(OC(=O)C[n+]2cccc(O)c2)C(=O)OCc2c1cc1n(c2=O)Cc2cc3ccccc3nc2-1 | 3800 | 2430 | 110 | – | – | – | – | – | – | – | – | – |
| – | CC[C@@]1(OC(=O)C[n+]2cccc(C)c2)C(=O)OCc2c1cc1n(c2=O)Cc2cc3ccccc3nc2-1 | 3760 | 3780 | 600 | – | – | – | – | – | – | – | – | – |
| 24 | CC[C@@]1(OC(=O)Cn2ccnn2)C(=O)OCc2c1cc1n(c2=O)Cc2cc3ccccc3nc2-1 | 1200 | 380 | 160 | – | – | – | – | – | – | – | – | – |
| – | CC[C@@]1(OC(=O)C(C)O)C(=O)OCc2c1cc1n(c2=O)Cc2cc3ccccc3nc2-1 (stereo partly drawn) | 560 | 820 | 500 | – | – | – | – | – | – | – | – | – |
| 9 | CC[C@@]1(OC(=O)C(C)Oc2cc(C(F)(F)F)ncn2)C(=O)OCc2c1cc1n(c2=O)Cc2cc3ccccc3nc2-1 (stereo partly drawn) | 270 | 1110 | 320 | – | – | – | – | – | – | – | – | – |
| – | CC[C@@]1(OC(=O)C[n+]2cccc(CO)c2)C(=O)OCc2c1cc1n(c2=O)Cc2cc3ccccc3nc2-1 | 2570 | 2090 | 800 | – | – | – | – | – | – | – | – | – |
| – | CC[C@@]1(O)C(=O)OCc2c1cc1n(c2=O)Cc2cc3c(CN(C)C)c(O)ccc3nc2-1 [TOPOTECAN] | 5550 | 3660 | 3990 | -29 | – | 92.5 | – | – | – | -3 | 62 | Non-toxic |
| – | CC[C@@]1(OC(=O)C[n+]2cccc(C(C)=O)c2)C(=O)OCc2c1cc1n(c2=O)Cc2cc3ccccc3nc2-1 | 3450 | 2580 | 540 | – | – | – | – | – | – | – | – | – |

| Compound | half-life [1] [h] | IC50 (MCF7) [nM] | IC50 (HCT-8 [2]) [nM] | IC50 (PC-3) [nM] | Activity (HCT-8 [3]) [%] | Activity (HCT-8 [4]) [%] | inhibition in vivo at 10 mg/kg (HCT-8 [5]) [%] | inhibition in vivo at 20 mg/kg (HCT-8 [6]) [%] | Activity (Mus musculus [7]) | Activity (Mus musculus [8]) | Activity (HCT-8 [9]) [%] | inhibition in vivo at 5 mg/kg (HCT-8 [10]) [%] | Activity (Mus musculus [11]) |
| --- | --- | --- | --- | --- | --- | --- | --- | --- | --- | --- | --- | --- | --- |
| CC[C@@]1(OC(=O)C(C)n2cccn2)C(=O)OCc2c1cc1n(c2=O)Cc2cc3ccccc3nc2-1 (stereo partly drawn) | > 48 | 810 | 230 | 130 | -2 | -5 | 77.1 | 92.9 | Non-toxic | – | – | – | – |
| CC[C@@]1(OC(=O)Cn2cccn2)C(=O)OCc2c1cc1n(c2=O)Cc2cc3ccccc3nc2-1 | > 48 | 120 | 610 | 160 | 7 | 8 | 35.3 | 75.6 | Non-toxic | Non-toxic | – | – | – |
| CC[C@@]1(OC(=O)COc2cc(C(F)(F)F)ncn2)C(=O)OCc2c1cc1n(c2=O)Cc2cc3ccccc3nc2-1 | 14 | 1790 | 1510 | 1340 | 36 | 12 | 25.4 | 49.3 | Non-toxic | Non-toxic | – | – | – |
| CC[C@@]1(OC(=O)Cn2ccnc2)C(=O)OCc2c1cc1n(c2=O)Cc2cc3ccccc3nc2-1 | 24 | 900 | 600 | 210 | 6 | 1 | 27.8 | 46.2 | Non-toxic | Non-toxic | – | – | – |
